Broadly, the IC50 is the concentration needed to halve the response being measured.

Here are results for 8 compounds from patent publication US7514435B2, “Pyrrolotriazine kinase inhibitors” (Bristol-Myers Squibb Company, priority 2005, dated 2009).

The target of one test is T1, TrkB (Homo sapiens, UniProt Q16620).
T1 construct: The kinase domain of the human TrkB receptor (amino acids 526-838); His; purchased Invitrogen; host or cells: insect cells
Briefly: TrkB tyrosine kinase inhibition, recombinant enzyme, polyGluTyr phosphorylation (33P-ATP filter assay). Format: biochemical. To be noted: kinase domain of human TrkB (amino acids 526-838), His-fusion; 0.1 mg/ml PGT, 30 uM ATP, 1 hour at 30° C. The procedure:
The ability of compounds of the invention to inhibit tyrosine kinase activity of TrkB may be measured using a recombinant enzyme in an assay that measures the ability of compounds to inhibit the phosphorylation of the exogenous substrate, polyGluTyr (PGT, 4:1). The kinase domain of the human TrkB receptor (amino acids 526-838) is expressed in insect cells as a histidine (His)-fusion protein and is commercially available from Invitrogen™. The enzyme assay is performed in a 96-well plate. Test compounds are first dissolved in dimethylsulfoxide (DMSO) and then serially-diluted in a 96-well plate. The serially-diluted compounds are transferred to the 96-well assay plate so that the final concentration of DMSO in the enzyme assay is 1.64%. All assay components are diluted in phosphorylation buffer (20 mm MOPS, 10 mM MgCl2, 1 mM EDTA, 0.015% Brij-35, 0.1 mg/ml BSA, 0.0025% Beta-Mercaptoethanol). The recombinant enzyme is added to the assay plate containing test compound and the reaction is initiated with a substrate solution containing a final concentration of 0.1 mg/ml PGT, 30 uM ATP, and 0.008 mCi/ml ^33P-gammaATP (3000 Ci/mmol)(Perkin Elmer™) After a 1 hour incubation at 30° C., the reaction is terminated with 10% TCA and incubated at 4° C. for 1 hour. The reaction is filtered onto a Unifilter® GF/C™ filter plate that has been presoaked with 0.1 M NaPyrophosphate. Microscint-20 is then added to the dried filter plate and the captured ^33P-phosphorylated PGT is quantitated on a microscintillation plate counter (TopCount·NXT™).

The next test has as its target T2, TrkA (Homo sapiens, UniProt P04629).
T2 construct: The kinase domain of the human TrkA receptor is expressed in Sf9 insect cells as a histidine (His)-fusion protein; His; made in house; host or cells: Sf9 insect cells (baculovirus)
As to the kind of experiment: TrkA tyrosine kinase inhibition, recombinant enzyme, polyGluTyr phosphorylation (33P-ATP filter assay). The settings on record: kinase domain of human TrkA, His-fusion; 0.1 mg/ml PGT, 30 uM ATP, 1 hour at 30° C. It is filed as biochemical. The text has this: The ability of compounds of the invention to inhibit tyrosine kinase activity of TrkA may be measured using a recombinant enzyme in an assay that measures the ability of compounds to inhibit the phosphorylation of the exogenous substrate, polyGluTyr (PGT, 4:1). The kinase domain of the human TrkA receptor is expressed in Sf9 insect cells as a histidine (His)-fusion protein using a baculovirus expression system. The protein is purified from the lysates of these cells using an Ni-NTA affinity column. After the recombinant enzyme is purified, it is activated by incubation with cold ATP. The enzyme assay is performed in a 96-well plate. Test compounds are first dissolved in dimethylsulfoxide (DMSO) and then serially-diluted in a 96-well plate. The serially-diluted compounds are transferred to the 96-well assay plate so that the final concentration of DMSO in the enzyme assay is 1.64%. All assay components are diluted in phosphorylation buffer (20 mm MOPS, 10 mM MgCl2, 1 mM EDTA, 0.015% Brij-35, 0.1 mg/ml BSA, 0.0025% Beta-Mercaptoethanol). The recombinant enzyme is added to the assay plate containing test compound and the reaction is initiated with a substrate solution containing a final concentration of 0.1 mg/ml PGT, 30 uM ATP, and 0.008 mCi/ml ^33P-gammaATP (3000 Ci/mmol). After a 1 hour incubation at 30° C., the reaction is terminated with 10% TCA and incubated at 4° C. for 1 hour. The reaction is filtered onto a Unifilter® GF/C™ filter plate that has been presoaked with 0.1 M NaPyrophosphate. Microscint-20 is then added to the dried filter plate and the captured ^33P-phosphorylated PGT is quantitated on a microscintillation plate counter (TopCount·NXT™).

Where only a bound is given, the exact number is not on record here.

T2 sequence (P04629 510-781 limits assumed): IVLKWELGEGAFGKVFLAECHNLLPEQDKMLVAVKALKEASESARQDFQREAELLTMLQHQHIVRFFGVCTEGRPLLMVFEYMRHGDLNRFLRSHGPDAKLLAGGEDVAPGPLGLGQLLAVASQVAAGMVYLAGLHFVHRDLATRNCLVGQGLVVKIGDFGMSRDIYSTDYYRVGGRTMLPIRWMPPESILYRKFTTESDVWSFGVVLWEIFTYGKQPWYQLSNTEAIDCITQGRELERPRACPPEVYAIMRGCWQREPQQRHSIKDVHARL
T1 sequence (Q16620 510-822): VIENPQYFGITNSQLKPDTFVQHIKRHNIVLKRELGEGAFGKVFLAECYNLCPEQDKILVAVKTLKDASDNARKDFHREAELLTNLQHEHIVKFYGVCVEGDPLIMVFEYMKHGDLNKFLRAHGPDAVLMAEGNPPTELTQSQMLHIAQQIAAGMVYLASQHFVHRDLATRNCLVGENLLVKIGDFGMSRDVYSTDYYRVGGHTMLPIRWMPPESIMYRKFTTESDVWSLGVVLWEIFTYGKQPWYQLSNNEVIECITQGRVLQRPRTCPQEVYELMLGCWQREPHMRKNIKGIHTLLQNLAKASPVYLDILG

As for `CC(C)c1cc(C(=O)c2cccc(NC(=O)Nc3ccncc3)c2)c2c(N)ncnn12` [Example 63, 1-{3-[(4-amino-7-isopropyl-pyrrolo[2,1-f][1,2,4]triazin-5-yl)carbonyl]phenyl}-3-pyridin-4-ylurea], the IC50 at TrkB is 15 nM; on TrkA it was 9 nM.
Regarding `CC(C)c1cc(C(=O)c2cccc(NC(=O)NCCCc3ccccc3)c2)c2c(N)ncnn12` [Example 61, 1-{3-[(4-amino-7-isopropyl-pyrrolo[2,1-f][1,2,4]triazin-5-yl)carbonyl]phenyl}-3-(3-phenylpropyl)urea], the figures for the IC50 on TrkB and on TrkA were 8 nM and 21 nM, respectively.
Regarding `CN(C)CCCc1cc(C(=O)c2cccc(NC(=O)Nc3ccc(Cl)cc3Cl)c2)c2c(N)ncnn12` [Example 67, 1-[3-({4-amino-7-[3-(dimethylamino)propyl]Pyrrolo[2,1-f][1,2,4]triazin-5-yl}carbonyl)phenyl]-3-(2,4-dichlorophenyl)urea], the IC50 on TrkB was 1 nM; on TrkA, 3 nM.
As for `CC(C)c1cc(C(=O)c2cccc(NC(=O)NCC3CCCCC3)c2)c2c(N)ncnn12` [Example 37, 1-{3-[(4-amino-7-isopropyl-pyrrolo[2,1-f][1,2,4]triazin-5-yl)carbonyl]phenyl}-3-(cyclohexylmethyl)urea], the figures for the IC50 on TrkB and on TrkA were 36 nM and 17 nM, respectively.
In the case of `CC(C)c1cc(C(=O)c2cccc(NC(=O)Nc3ccc(Cl)cc3Cl)c2)c2c(N)ncnn12` [Example 1, 1-{3-[(4-amino-7-isopropylpyrrolo [2,1-f][1,2,4]triazin-5-yl)carbonyl]phenyl}-3-(2,4-dichlorophenyl)urea], the half-inhibitory concentration (IC50) at TrkB came out at 1 nM.
Consider `CC(C)c1cc(C(=O)c2cccc(NC(=O)Nc3ccc4ccccc4c3)c2)c2c(N)ncnn12` [Example 46, 1-{3-[(4-amino-7-isopropyl-pyrrolo[2,1-f][1,2,4]triazin-5-yl)carbonyl]phenyl}-3-(2-naphthyl)urea], for which the IC50 was 1 nM on TrkB and less than 1 nM on TrkA.
On the same counts, the results for `CC(C)c1cc(C(=O)c2cccc(NC(=O)Nc3ccc(OCc4ccccc4)cc3)c2)c2c(N)ncnn12` [Example 33, 1-{3-[(4-amino-7-isopropyl-pyrrolo[2,1-f][1,2,4]triazin-5-yl)carbonyl]phenyl}-3-[4-(benzyloxy)phenyl]urea] are 1 nM and 2 nM.
Consider `CC(C)c1cc(C(=O)c2cccc(NC(=O)Nc3ccccc3)c2)c2c(N)ncnn12` [Example 9, 1-{3-[(4-amino-7-isopropyl-pyrrolo[2,1-f][1,2,4]triazin-5-yl)carbonyl]phenyl}-3-phenylurea], for which the half-inhibitory concentration (IC50) at TrkB was less than 1 nM; on TrkA it was 2 nM.
